Reference: ChEMBL document CHEMBL1201862, “PubChem BioAssay data set” (2004)
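A five-concentration, 48-hour dose response in 96-well plates underlies each endpoint, interpolated linearly between surrounding concentrations. Here, GI50 denotes the concentration required for 50% inhibition of growth.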 Active and inactive are the calls of the source. No stated cut-off is given here; in the data, active = GI50 up to about 1.1 µM and inactive = higher.

What was measured:
Test in all cases: NCI tumour cell line growth inhibition, 48 h
[1] = tested on: 786-0
[2] = tested on: A498
[3] = tested on: A549
[4] = tested on: ACHN
[5] = tested on: BT-549
[6] = tested on: CAKI-1
[7] = tested on: CCRF-CEM
[8] = tested on: COLO 205
[9] = tested on: DU-145
[10] = tested on: EKVX
[11] = tested on: HCC 2998
[12] = tested on: HCT-116
[13] = tested on: HCT-15
[14] = tested on: HL-60
[15] = tested on: HOP-62
[16] = tested on: HOP-92
[17] = tested on: HT-29
[18] = tested on: Hs-578T
[19] = tested on: IGROV-1
[20] = tested on: K562
[21] = tested on: KM12
[22] = tested on: LOX IMVI
[23] = tested on: M14
[24] = tested on: MCF7
[25] = tested on: MDA-MB-231
[26] = tested on: MDA-MB-435
[27] = tested on: MDA-N
[28] = tested on: MOLT-4
[29] = tested on: Malme-3M
[30] = tested on: NCI-H226
[31] = tested on: NCI-H23
[32] = tested on: NCI-H460
[33] = tested on: NCI-H522
[34] = tested on: NCI/ADR-RES
[35] = tested on: OVCAR-3
[36] = tested on: OVCAR-4
[37] = tested on: OVCAR-5
[38] = tested on: OVCAR-8
[39] = tested on: PC-3
[40] = tested on: RPMI-8226
[41] = tested on: RXF 393
[42] = tested on: SF-268
[43] = tested on: SF-295
[44] = tested on: SF-539
[45] = tested on: SK-MEL-2
[46] = tested on: SK-MEL-5
[47] = tested on: SK-OV-3
[48] = tested on: SN12C
[49] = tested on: SNB-19
[50] = tested on: SNB-75
[51] = tested on: SR
[52] = tested on: SW-620
[53] = tested on: T47D
[54] = tested on: TK-10
[55] = tested on: U-251
[56] = tested on: UACC-257
[57] = tested on: UACC-62
[58] = tested on: UO-31
[59] = tested on: SK-MEL-28

CCOC(=O)Nc1cc2c(c(N)n1)N=C(c1ccc(Cl)cc1Cl)CN2
GI50 [1]: < 0.0217 µM (active)
GI50 [2]: 2.68 µM (inactive)
GI50 [3]: < 0.0191 µM (active)
GI50 [4]: 0.0535 µM (active)
GI50 [5]: 0.791 µM (active)
GI50 [6]: 0.0383 µM (active)
GI50 [7]: < 0.0155 µM (active)
GI50 [8]: 0.0425 µM (active)
GI50 [9]: < 0.0191 µM (active)
GI50 [10]: 1.63 µM (inactive)
GI50 [11]: 0.0995 µM (active)
GI50 [12]: < 0.01 µM (active)
GI50 [13]: < 0.0229 µM
GI50 [14]: 0.0132 µM (active)
GI50 [15]: < 0.0189 µM (active)
GI50 [16]: 17.3 µM (inactive)
GI50 [17]: < 0.0181 µM (active)
GI50 [18]: < 0.0143 µM (active)
GI50 [19]: 0.292 µM (active)
GI50 [20]: < 0.01 µM (active)
GI50 [21]: < 0.0174 µM (active)
GI50 [22]: < 0.0195 µM (active)
GI50 [23]: 0.0766 µM (active)
GI50 [24]: 0.132 µM (active)
GI50 [25]: 0.0442 µM (active)
GI50 [26]: < 0.01 µM (active)
GI50 [27]: < 0.01 µM (active)
GI50 [28]: < 0.0228 µM (active)
GI50 [29]: < 0.0178 µM (active)
GI50 [30]: 0.0314 µM (active)
GI50 [31]: 0.0834 µM (active)
GI50 [32]: < 0.0154 µM (active)
GI50 [33]: < 0.0213 µM (active)
GI50 [34]: < 0.0154 µM (active)
GI50 [35]: 0.0109 µM (active)
GI50 [36]: 14.3 µM (inactive)
GI50 [37]: 0.0392 µM (active)
GI50 [38]: 0.0276 µM (active)
GI50 [39]: < 0.0129 µM (active)
GI50 [40]: < 0.01 µM (active)
GI50 [41]: < 0.01 µM (active)
GI50 [42]: 0.0845 µM (active)
GI50 [43]: 0.0112 µM (active)
GI50 [44]: < 0.0173 µM (active)
GI50 [45]: < 0.01 µM (active)
GI50 [46]: < 0.0124 µM (active)
GI50 [47]: 0.509 µM (active)
GI50 [48]: 0.0805 µM (active)
GI50 [49]: 0.019 µM (active)
GI50 [50]: < 0.01 µM (active)
GI50 [51]: < 0.01 µM (active)
GI50 [52]: < 0.0194 µM (active)
GI50 [53]: 15.6 µM (inactive)
GI50 [54]: 3.78 µM (inactive)
GI50 [55]: < 0.019 µM (active)
GI50 [56]: 20.8 µM (inactive)
GI50 [57]: < 0.0105 µM (active)
GI50 [58]: 0.052 µM (active)

O=C1OCC/C1=C/c1ccc(/N=N/c2c(O)ccc3ccccc23)cc1
GI50 [1]: 19.1 µM (inactive)
GI50 [2]: 15.1 µM (inactive)
GI50 [3]: 18.6 µM (inactive)
GI50 [4]: 17.5 µM (inactive)
GI50 [5]: 23.2 µM (inactive)
GI50 [6]: 19.7 µM (inactive)
GI50 [7]: 22.9 µM (inactive)
GI50 [8]: 25.1 µM (inactive)
GI50 [9]: 17.7 µM (inactive)
GI50 [10]: 19.1 µM (inactive)
GI50 [11]: 20.9 µM (inactive)
GI50 [12]: 17.6 µM (inactive)
GI50 [13]: 24.9 µM
GI50 [14]: 22.6 µM (inactive)
GI50 [15]: 21.9 µM (inactive)
GI50 [16]: 27.4 µM (inactive)
GI50 [17]: 19.4 µM (inactive)
GI50 [18]: 27.2 µM (inactive)
GI50 [19]: 25.8 µM (inactive)
GI50 [20]: 28.6 µM (inactive)
GI50 [21]: 5.11 µM (inactive)
GI50 [23]: 27.5 µM (inactive)
GI50 [24]: 24.8 µM (inactive)
GI50 [25]: 50.2 µM (inactive)
GI50 [26]: 23.1 µM (inactive)
GI50 [27]: 13.8 µM (inactive)
GI50 [28]: 19.5 µM (inactive)
GI50 [29]: 15.6 µM (inactive)
GI50 [30]: 19.4 µM (inactive)
GI50 [31]: 19.5 µM (inactive)
GI50 [32]: 19.7 µM (inactive)
GI50 [33]: 22.9 µM (inactive)
GI50 [34]: 20.1 µM (inactive)
GI50 [35]: 18.1 µM (inactive)
GI50 [36]: 18.6 µM (inactive)
GI50 [37]: 22.3 µM (inactive)
GI50 [38]: 26.7 µM (inactive)
GI50 [39]: 19.9 µM (inactive)
GI50 [40]: 21.6 µM (inactive)
GI50 [41]: 19.3 µM (inactive)
GI50 [42]: 19.8 µM (inactive)
GI50 [43]: 25.3 µM (inactive)
GI50 [44]: 18.4 µM (inactive)
GI50 [59]: 18.9 µM (inactive)
GI50 [45]: 26.7 µM (inactive)
GI50 [46]: 21.9 µM (inactive)
GI50 [47]: 28.3 µM (inactive)
GI50 [48]: 18.2 µM (inactive)
GI50 [49]: 39.4 µM (inactive)
GI50 [50]: 24.8 µM (inactive)
GI50 [51]: 15.2 µM (inactive)
GI50 [52]: 19.2 µM (inactive)
GI50 [53]: 39.4 µM (inactive)
GI50 [54]: 19.9 µM (inactive)
GI50 [55]: 18.7 µM (inactive)
GI50 [56]: 20.7 µM (inactive)
GI50 [57]: 29.5 µM (inactive)
GI50 [58]: 19.1 µM (inactive)
